Results as given in PubChem BioAssay AID256 (DTP/NCI, 2004).
“And” between values parts separate entries of the source, which are not always exact repeats. Identical values can stand only once. Toxic doses and inconclusive results are not listed.

Test system: CD2F1 mice, L1210 leukemia ip, survival T/C
Experiment: NCI In Vivo Anticancer Drug Screen. Data for tumor model L1210 Leukemia (intraperitoneal) in CD2F1 (CDF1) mice
Conditions: higher = longer survival
Outline: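 Transplantable tumor in mice; compound-treated vs vehicle-treated groups. Read-out = treated/control ratio of the measured endpoint.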

**Q.** Which results are given for `NC(=O)c1csc(C2OC(CO)C(O)C2O)n1` (centres undefined)?
**A.** T/C (endpoint: mean survival time, dose: 12.5 mg/kg/injection, schedule: Q01DX005 (ip), vehicle: water): 111 % of control; T/C (endpoint: mean survival time, dose: 25.0 mg/kg/injection, schedule: Q01DX005 (ip), vehicle: water): 120 % of control; T/C (endpoint: mean survival time, dose: 25.0 mg/kg/injection, schedule: Q01DX009 (ip), vehicle: water): 158 % of control and 162 % of control; T/C (endpoint: mean survival time, dose: 50.0 mg/kg/injection, schedule: Q01DX005 (ip), vehicle: water): 152 % of control; T/C (endpoint: mean survival time, dose: 50.0 mg/kg/injection, schedule: Q01DX009 (ip), vehicle: water): 166 % of control and 167 % of control; T/C (endpoint: mean survival time, dose: 100.0 mg/kg/injection, schedule: Q01DX009 (ip), vehicle: saline): 183 % of control; T/C (endpoint: mean survival time, dose: 100.0 mg/kg/injection, schedule: Q01DX009 (ip), vehicle: water): 182 % of control; T/C (endpoint: mean survival time, dose: 150.0 mg/kg/injection, schedule: Q01DX005 (ip), vehicle: water): 150 % of control; T/C (endpoint: mean survival time, dose: 200.0 mg/kg/injection, schedule: Q01DX009 (ip), vehicle: saline): 182 % of control; T/C (endpoint: mean survival time, dose: 200.0 mg/kg/injection, schedule: Q01DX009 (ip), vehicle: water): 203 % of control and 219 % of control; T/C (endpoint: mean survival time, dose: 300.0 mg/kg/injection, schedule: Q01DX005 (ip), vehicle: water): 155 % of control; T/C (endpoint: mean survival time, dose: 400.0 mg/kg/injection, schedule: Q01DX005 (ip), vehicle: water): 191 % of control and 192 % of control and 216 % of control; T/C (endpoint: mean survival time, dose: 400.0 mg/kg/injection, schedule: Q01DX009 (ip), vehicle: saline): 224 % of control; T/C (endpoint: mean survival time, dose: 400.0 mg/kg/injection, schedule: Q01DX009 (ip), vehicle: water): 200 % of control and 229 % of control; T/C (endpoint: mean survival time, dose: 600.0 mg/kg/injection, schedule: Q01DX009 (ip), vehicle: saline): 230 % of control; T/C (endpoint: mean survival time, dose: 800.0 mg/kg/injection, schedule: Q01DX005 (ip), vehicle: water): 206 % of control and 247 % of control; T/C (endpoint: mean survival time, dose: 800.0 mg/kg/injection, schedule: Q01DX009 (ip), vehicle: saline): 171 % of control; T/C (endpoint: mean survival time, dose: 800.0 mg/kg/injection, schedule: Q01DX009 (ip), vehicle: water): 185 % of control; T/C (endpoint: median survival time, dose: 4.0 mg/kg/injection, schedule: Q03HX024 (ip), vehicle: water): 150 % of control; T/C (endpoint: median survival time, dose: 8.0 mg/kg/injection, schedule: Q03HX024 (ip), vehicle: water): 186 % of control; T/C (endpoint: median survival time, dose: 16.0 mg/kg/injection, schedule: Q03HX024 (ip), vehicle: water): 168 % of control; T/C (endpoint: median survival time, dose: 16.0 mg/kg/injection, schedule: Q04DX003 (ip), vehicle: water): 101 % of control; T/C (endpoint: median survival time, dose: 16.0 mg/kg/injection, schedule: Q#A X018 (ip), vehicle: water): 174 % of control; T/C (endpoint: median survival time, dose: 22.25 mg/kg/injection, schedule: Q01DX005 (ip), vehicle: water): 97 % of control; T/C (endpoint: median survival time, dose: 23.44 mg/kg/injection, schedule: Q01DX005 (ip), vehicle: water): 98 % of control; T/C (endpoint: median survival time, dose: 32.0 mg/kg/injection, schedule: Q01DX001 (iv), vehicle: water): 117 % of control; T/C (endpoint: median survival time, dose: 32.0 mg/kg/injection, schedule: Q01DX005 (ip), vehicle: water): 152 % of control; T/C (endpoint: median survival time, dose: 32.0 mg/kg/injection, schedule: Q01DX009 (ip), vehicle: water): 159 % of control and 176 % of control; T/C (endpoint: median survival time, dose: 32.0 mg/kg/injection, schedule: Q01DX009 (oral), vehicle: water): 163 % of control; T/C (endpoint: median survival time, dose: 32.0 mg/kg/injection, schedule: Q03HX024 (ip), vehicle: water): 184 % of control; T/C (endpoint: median survival time, dose: 32.0 mg/kg/injection, schedule: Q04DX003 (ip), vehicle: water): 109 % of control; T/C (endpoint: median survival time, dose: 32.0 mg/kg/injection, schedule: Q#A X018 (ip), vehicle: water): 195 % of control; T/C (endpoint: median survival time, dose: 44.5 mg/kg/injection, schedule: Q01DX005 (ip), vehicle: water): 102 % of control; T/C (endpoint: median survival time, dose: 64.0 mg/kg/injection, schedule: Q01DX001 (ip), vehicle: water): 110 % of control; T/C (endpoint: median survival time, dose: 64.0 mg/kg/injection, schedule: Q01DX001 (iv), vehicle: water): 120 % of control; T/C (endpoint: median survival time, dose: 64.0 mg/kg/injection, schedule: Q01DX001 (oral), vehicle: water): 111 % of control; T/C (endpoint: median survival time, dose: 64.0 mg/kg/injection, schedule: Q01DX005 (ip), vehicle: water): 163 % of control; T/C (endpoint: median survival time, dose: 64.0 mg/kg/injection, schedule: Q01DX005 (iv), vehicle: water): 151 % of control; T/C (endpoint: median survival time, dose: 64.0 mg/kg/injection, schedule: Q01DX005 (oral), vehicle: water): 150 % of control; T/C (endpoint: median survival time, dose: 64.0 mg/kg/injection, schedule: Q01DX009 (oral), vehicle: water): 188 % of control; T/C (endpoint: median survival time, dose: 64.0 mg/kg/injection, schedule: Q03HX024 (ip), vehicle: water): 219 % of control; T/C (endpoint: median survival time, dose: 64.0 mg/kg/injection, schedule: Q04DX003 (ip), vehicle: water): 114 % of control; T/C (endpoint: median survival time, dose: 64.0 mg/kg/injection, schedule: Q#A X018 (ip), vehicle: water): 210 % of control; T/C (endpoint: median survival time, dose: 89.0 mg/kg/injection, schedule: Q01DX005 (ip), vehicle: water): 94 % of control
